Assay results reported in ChEMBL document CHEMBL1125126, “Torsionally and hydrophobically modified 2,3-diarylindenes as estrogen receptor ligands” (J Med Chem, 1990).

molecular target: Estrogen receptor (Rattus norvegicus) (UniProt P06211+Q62986); experiment: Displacement of [3H]estradiol from rat uterine estrogen receptor; assay type: protein assay

Row | SMILES | RBA
1 | Cc1ccc(C2=C(c3ccccc3)Cc3cc(O)ccc32)cc1 | 1.7%
2 | Oc1ccc2c(c1)CC(c1ccccc1)=C2c1ccccc1F | 12%
3 | Cc1ccccc1C1=C(c2ccc(O)cc2)c2ccc(O)cc2C1 | 23%
4 | Oc1ccc(C2=C(c3ccccc3)Cc3cc(O)ccc32)c(F)c1 | 9.6%
5 | Oc1ccc2c(c1)CC(c1ccccc1F)=C2c1ccccc1 | 49%

Further lines, results first:

Row | RBA | SMILES
6 | 11% | Cc1ccccc1C1=C(c2ccccc2)Cc2cc(O)ccc21
7 | 100% | Cc1ccccc1C1=C(c2ccccc2)c2ccc(O)cc2C1
